These results are taken from patent publication US8158575B2, “Agent for the prevention and treatment of sexually transmitted diseases-I” (priority 2001, dated 2012).

Marks after values point to notes of the source that are not given here.

Series [1] relates to C. trachomatis. Description: C. trachomatis genital tract infection in mice. The format is in vivo, mouse. Particulars: 15 μL of 100 mg/mL, −20 sec. From the text: Lower genital tract infection is defined by isolation of the organism by culture from vaginal swab samples collected on days 3 or 6 post challenge. For upper genital tract infection the definition is isolation of the organism by culture from the upper genital tract tissue harvested on day 10 post challenge. Phosphate buffer PBS treated mice were used as controls.

For series [2], the system named is PBMCs. Description: MTS cell viability in PBMC assay. The format is cell-based, human. From the text:
Human peripheral blood mononuclear cells from a minimum of 2 donors, that have been blasted with PHA and IL-2, were counted, viability determined by Trypan Blue dye exclusion and mixed in equal ratios. Pooled donors were used to minimize the variability observed between individual donors which results from quantitative and qualitative differences in HIV infection and overall response to the PHA and IL-2 of primary lymphocyte populations. The cells were resuspended at 1×10^6 cells/mL in RPMI 1640 without phenol red supplemented with 15% Fetal Bovine Serum (heat inactivated), 2 mM L-glutamine, 100 U/mL penicillin, 100 μg/mL streptomycin, 10 μg/mL gentamycin and IL-2 (20 U/mL, R&D Systems, Minneapolis, Minn.). Fifty microliters of cells were then distributed to the inner 60 wells of a 96 well round bottom microtiter culture plate in a standard format developed by the Infectious Disease Research department of Southern Research Institute. Each plate contains cell control wells (cells only), virus control wells (cells plus virus), and experimental wells (drug plus cells plus virus). Serially diluted compounds are added to the microtiter plate followed by the appropriate pre-titered strain of HIV-1 or SHIV-1. All samples were assayed in triplicate with a replicate plate without virus for the determination of compound toxicity. The final volume per well was 200 µL. The assay was incubated for 6 days in a humidified atmosphere at 37° C., 5% CO2, after which supernatants were collected, for analysis of RT activity and sister plates analyzed for cell viability by MTS dye reduction. Wells were also examined microscopically and any abnormalities noted.
At assay termination the assay plates were stained with the soluble tetrazolium-based dye MTS (CellTiter® Reagent Promega, Madison, Wis.) to determined cell viability and quantify compound toxicity. […] At termination of the PBMC assay 20 µL of MTS reagent was added per well, and the wells are incubated for 4 h at 37° C.
AZT has been used as a relevant positive control compound for the individual assays.

Series [3] concerns ME180 cells. Description: XTT cell viability in the CD4-independent transmission assay. As for the experimental part: ME180 cells, a CD4 negative, X4 positive cervical epithelial cell line is maintained in RPMI 1640 supplemented with 10% fetal bovine serum, glutamine and antibiotics. Twenty-four h prior to the assay ME180 cells are trypsonized, washed and seeded in 96-well flat bottom microtiter plates at a density of 2×10^3 cells per well. On the day of the assay, H9 cells chronically infected with the SK1 clinical isolate of HIV-1 (H9-SK1) are treated with freshly made mitomycin C (200 μg/ml) for 60 minutes at 37° C. This concentration of mitomycin C is sufficient to result in cell death, but allows virus transmission to occur. After mitomycin C treatment the H9-SK1 cells are washed three times with tissue culture medium. Test compounds are added to the ME180 monolayer followed by 2×10^4 H9-SK1 cells. The ME180 cells are co-cultured with H9-SK-1 cells and test material for 4 h, and the H9-SK1 cells are removed by washing the ME180 monolayer three times with PBS. At 24 and 48 h post assay initiation the wells are again washed three times with PBS to ensure removal of the H9-SK1 cells, and culture continued in test material free media. At six days post-co-cultivation, supernatants are collected and evaluated for p24 antigen expression by ELISA. Cell viability is assessed by XTT dye reduction. […] Testing in the presence of mucin is carried out by addition of 200 µg/ml of porcine mucin (Sigma Chemical Co., St Louis, Mo.) to the transmission reactions. Transmission intervals and washing without replacement of mucin or compound are carried as described above. All determinations are performed in triplicate with serial ½ Log10 dilution of the test materials.
TC50 values for the test materials are derived by measuring the reduction of the tetrazolium dye XTT (2,3-bis(2-methoxy-4-nitro-5-sulfophenyl)-5-[(phenylamino)carbonyl]-2H-tetrazolium hydroxide) in replicate microtiter plates containing cell and compound without virus. […] XTT solution is prepared daily as a stock of 1 mg/mL in PBS. Phenazine methosulfate (PMS) solution is prepared at 15 mg/mL in PBS and stored in the dark at −20° C. XTT/PMS stock is prepared immediately before use by diluting the PMS 1:100 into PBS and adding 40 µl per mL of XTT solution. Fifty microliters of XTT/PMS are added to each well of the plate and the plate incubated for 4 h at 37° C. The 4 h incubation has been empirically determined to be within the linear response range for […] dye reduction with the indicated numbers of cells for each assay. Adhesive plate sealers are used in place of the lids, the sealed plate is inverted several times to mix the soluble formazan product and the plate is read at 450 nm with a Molecular Devices Vmax 96 well plate format spectrophotometer.
Dextran sulfate (positive) and dextran (negative) are used as controls for the CD4-dependent and CD4-independent HIV transmission inhibition assays. […] Commercially available Penicillin (10,000 U/ml) Streptomycin (10.0 mg/ml) solution is used as a positive control for the Lactobacillus sensitivity assay.
For orientation: Formazan colour is commonly taken as a measure of viable cells.

Series [4] concerns GHOST(3) X4/R5 cell line. Description: XTT cell viability in the CD4-dependent transmission assay. The format is cell-based, human. As for the experimental part: The […] is carried out essentially as described for the CD4-independent transmission assay except for the use of the CD4 positive GHOST(3) X4/R5 cell line. This cell line is derived from the HOS (human osteosarcoma) cell line that is negative for HIV coreceptor and CD4 expression. The cell line is engineered to express T4 (CD4), R5 and X4 via non-selectable retroviral vectors and an HIV-2 LTR hGFP construct with a hygromycin selectable marker. The cell lines are handled and cultured as described above for the CD4-independent HIV inhibition assay, with the exception that 2.5×10^4 GHOST(3) X4/R5 and 5×10^2 mitomycin C treated H9/SK-1 cells are used in the assay. Addition of compounds, mitomycin C treatment and post-transmission washing to remove the H9/SK-1 cells are performed as described above to allow comparability of the two antiviral assays. Virus replication is assessed at 24 h post infection, following 3 washes, by measurement of cell-associated p24 by ELISA to ensure a single round of infection in the presence of CD4. Compound toxicity and cell viability are assessed by XTT dye reduction.

On to “BHAlyslys2lys4lys8lys16[NH—CO—CH2)O-3,6-Naphthyl-(SO3Na)2]32 [SPL-7013]”, for which, in series [1] (Group 1, mouse), the “Animals Protected Against Infection, Lower Tract (%)” value is “(50%)^a”; the “Animals Protected Against Infection, Lower Tract (number)” value turned out to be 8; the “Animals Protected Against Infection, Upper Tract (%)” value was “(50%)”; the “Animals Protected Against Infection, Upper Tract (number)” value is listed as 8. Besides, in series [1] (Group 2, mouse), the “Animals Protected Against Infection, Lower Tract (%)” value is recorded as “(38%)”; the “Animals Protected Against Infection, Lower Tract (number)” value is given as 6; the “Animals Protected Against Infection, Upper Tract (%)” value is on record as “(50%)^a”; the “Animals Protected Against Infection, Upper Tract (number)” value was determined as 8. In series [2] (plate of the HIV-1 RoJo test), the “HIV-1 RoJo Infected PBMCs TC50” value was above 100 µg/mL. In addition, the “SHIV 89.6pd Infected PBMCs TC50” value in series [2] (plate of the SHIV 89.6pd test) is above 100 µg/mL. Also, in series [3], the “CD4-Independent Transmission Assay TC50” value is above 100 µg/mL. In addition, the “CD4-Dependent Transmission Assay TC50” value in series [4] was above 100 µg/mL.
